What was measured:
Rag1^−/− mice = test: Adoptive T cell transfer-induced colitis model; type: in vivo, mouse
Text: Treg cells were transduced by retrovirus expressing sgRNA targeting gene of interest, and cultured in X-VIVO® complete media and IL-2 (500 U/ml). Four days after transduction, the NGFR^+ transduced Treg cells were FACS sorted before transferred into recipient mice. To induce colitis, 2 million effector T cells (CD45.1^+CD4^+CD25^−CD45RB^hi) and 1 million sgRNA transduced Treg cells (CD45.2^+ CD4^+ Thy1.1^+ NGFR^+) were mixed together and transferred into Rag1^−/− recipient mice. The body weight of recipient mice was monitored weekly for signs of wasting symptoms. Mice were harvested 7 weeks after T cell transfer. Spleens were used for profiling immune cell populations by FACS. Colons were collected for histopathological analysis.
Histopathological analysis was performed in a blinded manner and scored using the following criteria: eight parameters were used, including (i) the degree of inflammatory infiltrate in the LP (0-3); (ii) Goblet cell loss (0-2); (iii) reactive epithelial hyperplasia/atypia with nuclear changes (0-3); (iv) the number of IELs in the epithelial crypts (0-3); (v) abnormal crypt architecture (distortion, branching, atrophy, crypt loss) (0-3); (vi) number of crypt abscesses (0-2); (vii) mucosal erosion to frank ulcerations (0-2) and (viii) submucosal spread to transmural involvement (0-2). The severity of lesion was scored independently in 3 regions (proximal, middle and distal colon) over a maximal score of 20. The overall colitis score was based as the average of each regional score (maximal score of 20).

Foxp3 target genes = test: RNA-seq and gene set enrichment analysis in Treg cells; type: cell-based, mouse
Text: For large scale Treg culture, Tregs were first expanded in Rosa-Cas9/Foxp3^Thy1.1 mice by injecting IL-2:IL-2 antibody immune complex according protocol described in Webster et. al (J Exp Med 206, 751-760, 2009). Spleen and lymph node Treg cells were labeled with PE-conjugated Thy1.1 antibody and isolated by magnetic selection using anti-PE microbeads (Mitenyl #130-048-801). All isolated Treg cells were activated by plate bound anti-CD3 and anti-CD28 antibodies and cultured with X-VIVO® 20 media (LONZA #04-448Q) supplemented by 1× Pen/Strep, 1× Sodium pyruvate, 1× HEPES, 1× GlutaMax™, 55 μM beta-mercaptoethanol in the presence of IL-2 at 500 units/mL. For experiments with Brd9 degradation, Treg cells were treated at day 0 with 2.5 μM dBRD9 (Tocris #6606) and cultured for four days for RNA- and ChIP-seq and 0.16-10 μM treated at day 0 and cultured dBRD9 for four days for Foxp3 MFI, cell viability and cell proliferation assays. Live cells were enriched by Ficoll-Paque® 1.084 (GE Health 17-5446-02) for RNA-seq and ChIP-seq.
RNA from 1-3×10^6 cells was extracted and purified with TRIzol™ reagent (Thermo Fisher) according to manufacturer's instructions. RNA-seq libraries were prepared using Illumina® TruSeq® Stranded mRNA kit following manufacturer's instructions with 5 μg of input RNA.
Single-end 50 bp reads were aligned to the mouse genome mm10 using STAR alignment tool (V2.5) (Dobin et al., Bioinformatics 29:15-21, 2013). RNA expression was quantified as raw integer counts using analyzeRepeats.pl in HOMER (Heinz et al., Mol Cell 38:576-589, 2010) using the following parameters: -strand both -count exons -condenseGenes -noadj. To identify differentially expressed genes, getDiffExpression.pl in HOMER was used, which uses the DESeq2R package to calculate the biological variation within replicates. Cut-offs were set at log 2 FC=0.585 and FDR at 0.05 (Benjamin-Hochberg). Principal Component Analysis (PCA) was performed with the mean of transcript per million (TPM) values using Cluster 3.0 with the following filter parameters: at least one observation with absolute value equal or greater than two and gene vector of four. TPM values were log transformed then centered on the mean.
GSEA software (Mootha et al., Nat Genet 34:267-273, 2003; Subramanian et al., PNAS 102:15545-15550, 2005) was used to perform the analyses with the following parameters: number of permutations=1000; enrichment statistic=weighted; and metric for ranking of genes=difference of classes (Input RNA-seq data was log-transformed). For GSEA analysis, input RNA-seq data contained the normalized log-transformed reads of the 1,325 differentially expressed genes (DEGs) in sgFoxp3/sgNT Treg cells. The compiled gene list included GSEA Gene Ontology, Immunological Signature, Curated Gene, and the up and down DEGs in sgBrd9/sgNT Treg cells.
For gene expression analysis in FIG. 42F, Foxp3 ChIP-seq tags were quantified at the union of sites bound by Foxp3 in sgNT and sgBrd9 using the annotatePeaks.pl command in HOMER with size-given and each site was annotated to a gene by mapping to the nearest TSS. Sites were ranked from least to largest Foxp3 ChIP-seq Log2FC in sgBrd9 vs sgNT and divided into quartiles. Gene expression for the genes in the top and bottom quartiles (Brd9-dependent and -independent, respectively) was then plotted using RNA-seq data from Treg cells transduced with sgBrd9, sgSmarcd1, or sgPbrm1 compared to sgNT. […]

sgBrd9: sgRNA targeting Brd9, ATTAACCGGTTTCTCCCGGG (SEQ ID NO: 12) (expressed or natural sequence)
protection of recipient mice from body weight loss (Rag1^−/− mice; co-transfer of Teff and sgRNA transduced Treg cells into Rag1^−/− mice): failed to protect recipients from losing weight
Foxp3^+ cell frequencies within the CD45.2^+CD4^+ transferred Treg population (Rag1^−/− mice; end point of colitis model): reduced Foxp3^+ cell frequencies
colitis pathology (Rag1^−/− mice; seven weeks after transfer, vs control Treg cells): significant colitis pathology
enrichment of increased/decreased genes among sgFoxp3 regulated genes (GSEA) (Foxp3 target genes; sgBrd9/sgNT vs sgFoxp3/sgNT Treg cells): significantly enriched among genes that increase upon sgFoxp3 targeting
gene expression of Brd9-dependent vs Brd9-independent Foxp3 target genes (Foxp3 target genes; sgRNA transduced Treg cells vs sgNT): significantly more affected
